Assay results taken from patent US20210228490A1, “STABLE PHARMACEUTICAL FORMULATION” (ORYZON GENOMICS, S.A., priority 2018, published 2021).
Entries after “also recorded” stand apart in the source; their conditions may differ.

Assay: Chemical stability of the API alone and in presence of excipients
Type: physicochemical
Description: Excipient selection/composition development was conducted in order to stabilize (trans)-N1-((1R,2S)-2-phenylcyclopropyl)cyclohexane-1,4-diamine in the final drug product to prevent its chemical degradation. (trans)-N1-((1R,2S)-2-phenylcyclopropyl)cyclohexane-1,4-diamine is very unstable in presence of excipients which are used to form a tablet composition. This is reflected by a decrease of the (trans)-N1-((1R,2S)-2-phenylcyclopropyl)cyclohexane-1,4-diamine content (assay) over time upon storage. The effect is more pronounced at elevated storage temperature.

N[C@H]1CC[C@H](N[C@@H]2C[C@H]2c2ccccc2)CC1 [(trans)-N1-((1R,2S)-2-phenylcyclopropyl)cyclohexane-1,4-diamine]
chemical stability as an API (API alone): chemically very stable
stability in presence of excipients (in presence of excipients which are used to form a tablet composition, more pronounced at elevated storage temperature): very unstable; also recorded: decompose in presence of many excipients
